Test results reported in patent US10905661B2, “Disulfiram and metal salt staggered oral dosing regimen and staggered-release oral unit dosage forms” (Cantex Pharmaceuticals, Inc., priority 2016, dated 2021).

Key:
[1] = Stability of disulfiram with zinc gluconate or copper gluconate after 4 weeks at 40° C.; type: physicochemical; details: 4 weeks @ 40° C./75% RH; Actual Conc. 0.040 mg/mL
Protocol: Stability of disulfiram and zinc gluconate was tested after 4 weeks at 40° C. in 0.1 N HCl. (Table 24).

[2] = Compatibility of disulfiram and zinc gluconate in 0.1N HCl (color, precipitate); type: physicochemical
Protocol: Compatibility of disulfiram and zinc gluconate for simultaneous oral administration was assessed. […] and 40 mg of disulfiram were mixed in 50 mL volumetric flasks, and 0.1N HCl was added to the flasks. […] A control was run in parallel: 0.1N HCl solution containing 50 mg of zinc gluconate alone.

CCN(CC)C(=S)SSC(=S)N(CC)CC [DSF, bis(diethylthiocarbamoyl) disulfide]
Conc. (disulfiram found) [1]: 40000 ng/mL

zinc gluconate [zinc gluconate alone]
color change ([2]; 25° C./ambient humidity for 2 days): no color change | precipitate / clarity of solution ([2]; T0 and T=2 days, 25° C.): remained clear
